In patent US9526720B2, “Modulators of hepatic lipoprotein metabolism” (The Broad Institute, Inc., priority 2012, dated 2016):
Entries after “also recorded” stand apart in the source; their conditions may differ.

Experiments:
HepG2 cells [1] = assay: Cell Titer Glo (CTG) cell viability assay; format: cell-based, human; design: key: A: Increase <2-fold; B: Increase >2-fold; X: Decrease <2-fold; Y: Decrease >2-fold; No significant change; settings: cell viability (ATP)
Method: Cell viability was determined using a Cell Titer Glo (CTG) assay ([…]) after treatment with TRIB1 inducer compounds. In this assay, the number of viable cells in culture is based on quantitation of ATP, which indicates metabolically active cells. Addition of the reagent results in cell lysis and generation of a luminescent signal proportional to the amount of ATP present, which is directly proportional to the number of viable, metabolically active cells present in culture. Most TRIB1 inducer compounds had no significant effect on cell viability.

HMGCS = assay: qPCR HMGCS transcript level in HepG2 cells; format: cell-based; settings: Homo sapiens, 20 h
Method: (§1) In the primary screen, HepG2 cells were plated in 384-well plates at 2000 cells per well and incubated for 20 hours with each compound in duplicate at 10 microM concentration. Then RNA was isolated, reverse-transcribed to cDNA, and stored at −80° C. Expression levels of TRIB1 and other target genes, such as SORT1 and PCSK9, were determined by quantitative PCR. Relative gene expression level was normalized to expression of the housekeeping gene, GAPDH. A “hit” was defined as those compounds that caused a greater than 2-fold increase in relative target gene expression when normalized to GAPDH expression, compared to DMSO-treated control. Using these criteria, 130 hits were identified for TRIB1 (0.8% hit rate).
(§2) Further analysis of the expression levels of various proteins in the cholesterol and triglyceride biosynthetic pathways in response to TRIB1 inducer treatment was performed. In particular, transcript levels of additional lipoprotein metabolism pathway proteins SCAP, SREBF1, SREBF2, HMGCR, HMGCS, SCD1, FASN and MTTP were assessed by qPCR, along with TRIB1, LDLR, and PCSK9. The gene expression profile for the same subset of genes was also assessed after treatment with the statin atorvastatin (Lipitor), commonly used in therapy for hypercholesterolemia and other cardiovascular diseases.

LDLR [2] = assay: qPCR LDLR expression in HepG2 cells; format: cell-based, human; settings: overnight simvastatin, then compound
ApoB = assay: ELISA of secreted ApoB in HepG2 cells; format: cell-based, human; settings: for ELISA ApoB: HepG2 cells
Method: (§3) Additional secondary assays were performed in HepG2 cells to further characterize the cellular response to treatment with select confirmed TRIB1 inducer hits. The results of the ELISA, CTG, and qPCR secondary assays are summarized in Table B. For all secondary assays, the experiments were performed using powders of freshly purified compounds.
(§4) To further characterize the relationship of TRIB1 induction and PCSK9 reduction, ELISAs were performed to measure the levels of secreted ApoB, PCSK9, and LDLR. […] As predicted treatment with TRIB1 inducer hits caused a decrease in ApoB levels detected by ELISA. In parallel effort, 3200 BIOA and NATP compounds were screened for PCSK9 expression inhibitors. Hits were defined as inducing greater than 3-fold downregulation of PCSK9, and 3.8% of the screened compounds were confirmed as hits. […] In further experiments, a strong correlation was confirmed between TRIB1 induction and PCSK9 repression in DOS Collection hits. ELISA analysis confirmed that treatment with TRIB1 inducers reduced the PCSK9 protein levels. LDLR protein levels were also analyzed by ELISA to determine whether compounds that modulate both TRIB1 and PCSK9 had any effect on LDLR protein levels.

SREBF1 = assay: qPCR SREBF1 transcript level in HepG2 cells; format: cell-based, human; design: key: A: Increase <2-fold; B: Increase >2-fold; X: Decrease <2-fold; Y: Decrease >2-fold; No significant change
Method: as §1, §2

SREBF2 = assay: qPCR SREBF2 transcript level in HepG2 cells; format: cell-based, human; design: key: A: Increase <2-fold; B: Increase >2-fold; X: Decrease <2-fold; Y: Decrease >2-fold; No significant change
Method: as §1, §2

TRIB1 = assay: qPCR TRIB1 expression in HepG2 cells; format: cell-based, human; settings: for fold induction at 10 µM: Homo sapiens, 20 h, HepG2 cells
Method: as §1, §2
(§5) The kinetics of the modulation of TRIB1, LDLR, PCSK9 and MTTP gene expression after treatment by select TRIB1 inducer compounds was monitored by qPCR analysis (FIG. 4). RNA was extracted from cells at various timepoints over 28 hours of treatment (0, 2, 4, 6, 8, 24, 28 hours). Specifically, compounds 12a and 14a induced transcriptional responses over time similar to those produced by berberine, a plant alkaloid used in Chinese medicine. […] Both compound 12a and compound 14a induce TRIB1 and LDLR and repress PCSK9 and MTTP expression with similar kinetics and similar fold change as berberine Importantly, both compounds induce these gene expression changes at much lower concentrations than berberine. […] This increased potency indicates the potential therapeutic efficacy of such compounds for treatment of cardiovascular diseases, particularly hypercholesterolemia and related conditions.

LDLR [3] = assay: qPCR LDLR expression in HepG2 cells; format: cell-based, human; settings: for qPCR LDLR: HepG2 cells
Method: as §1, §2, §5

SCD1 = assay: qPCR SCD1 transcript level in HepG2 cells; format: cell-based; settings: Homo sapiens, 20 h
Method: as §1, §2

APOC3 = assay: Transcriptional profiling of APOC3 gene in HepG2 cells; format: cell-based, human; settings: 10 μM, 24 hours
Excerpt: Expression of APOC3 is associated with increased levels of triglycerides in plasma and carriers of APOC3 gene null mutation have low levels of triglycerides and are protected from cardiovascular disease (Pollin et al., Science, 322:1702, 2008).

PCSK9 [4] = assay: ELISA of secreted PCSK9 protein in HepG2 cells; format: cell-based, human; settings: for ELISA PCSK9: HepG2 cells
Method: as §3, §4

PCSK9 [5] = assay: qPCR PCSK9 expression in HepG2 cells; format: cell-based, human; settings: for fold induction at 10 µM: Homo sapiens, 20 h, HepG2 cells
Method: as §1, §2, §5

SCAP = assay: qPCR SCAP transcript level in HepG2 cells; format: cell-based, human; design: key: A: Increase <2-fold; B: Increase >2-fold; X: Decrease <2-fold; Y: Decrease >2-fold; No significant change
Method: as §1, §2

HMGCR = assay: qPCR HMGCR transcript level in HepG2 cells; format: cell-based, human
Method: as §1, §2

LDLR [6] = assay: ELISA of LDLR protein in HepG2 cells; format: cell-based, human; design: key to ELISA LDLR: A: Increase <2-fold; B: Increase >2-fold; X: Decrease <2-fold; Y: Decrease >2-fold; No significant change; settings: for ELISA LDLR: HepG2 cells
Method: as §3, §4

HepG2 cells [7] = assay: BODIPY-FL LDL uptake in HepG2 cells (high content microscopy); format: cell-based, human; settings: treated 20 hours; BODIPY-FL LDL uptake monitored 5 hours
Method: TRIB1 inducers increase the rate of LDL uptake. HepG2 cells grown under standard culture conditions (10% FBS) were treated for 20 hours with compounds 2a, 14a and 12a at indicated concentrations and the uptake of BODIPY-FL conjugated LDL particles was monitored for 5 hours using high content microscopy. To control for regulation of LDL uptake by cholesterol, cells were grown in media depleted for (0.5% LPDS—lipoprotein deficient serum) or supplemented with cholesterol (0.5% LPDS plus cholesterol ([…] cholesterol and […] 25-OH cholesterol)).

FASN = assay: qPCR FASN transcript level in HepG2 cells; format: cell-based; settings: Homo sapiens, 20 h
Method: as §1, §2

[8] = at the maximal dose tested, HepG2

Structure (SMILES) | CTG (HepG2 cells [1]) | fold induction at 10 µM (HMGCS) | ELISA ApoB (ApoB) | qPCR SREBF1 (SREBF1) | qPCR SREBF2 (SREBF2) | fold induction at 10 µM (TRIB1) | qPCR LDLR (LDLR [3]) | fold induction at 10 µM (SCD1) | ELISA PCSK9 (PCSK9 [4]) | fold induction at 10 µM (PCSK9 [5]) | qPCR SCAP (SCAP) | qPCR HMGCR (HMGCR) | ELISA LDLR (LDLR [6]) | fold induction at 10 µM (FASN) | further results
CN1C(=O)c2cc(NC(=O)c3ccc(C(F)(F)F)cc3)ccc2OC[C@@H]2O[C@@H](CC(=O)NC3Cc4ccccc4C3)CC[C@@H]21 [Compound 2a] | N | > 2 | Y (Decrease >2-fold) | N | N | > 2 | B (Increase >2-fold) | > 2 | Y (Decrease >2-fold) | > 2 | N | Y (Decrease >2-fold) | B (Increase >2-fold) | > 2 | induction of LDLR expression in combination with simvastatin (in words) (LDLR [2]): additive effect; secretion of apoB into the media / ApoB levels (in words) (ApoB; HepG2): inhibited secretion of apoB; TRIB1 expression (in words) (TRIB1; HepG2, qPCR): robustly induced; LDLR expression (in words) (LDLR [3]; HepG2, qPCR): induction of LDLR expression; also recorded: robustly induced; expression of APOC3 gene (in words) (APOC3): down regulates; inhibition of secretion of PCSK9 protein into the media (PCSK9 [4]; [8]): 70%; PCSK9 expression (in words) (PCSK9 [5]; HepG2, qPCR): strongly reduced; inhibition of expression of PCSK9 mRNA (PCSK9 [5]; [8]): 70%; expression of PCSK9 stimulated by pretreatment with atorvastatin (in words) (PCSK9 [5]; atorvastatin pretreatment): potently reduced; increase of the LDL receptor protein in the cell (LDLR [6]; HepG2): 3 fold; rate of LDL uptake (in words) (HepG2 cells [7]): robust increase
O=C(C[C@H]1CC[C@H]2[C@@H](COC[C@@H](O)CN2Cc2ccc(Oc3ccccc3)cc2)O1)N1CCc2ccccc2C1 [Compound 7a] | N | > 2 | Y (Decrease >2-fold) | N | N | > 2 | B (Increase >2-fold) | < 2 | Y (Decrease >2-fold) | > 2 | N | Y (Decrease >2-fold) | B (Increase >2-fold) | < 2 | 
O=C(C[C@@H]1CC[C@@H]2[C@H](COC[C@@H](O)CN2CCC(F)(F)F)O1)NCc1ccc(Oc2ccccc2)cc1 [Compound 8a] | N | > 2 | Y (Decrease >2-fold) | N | N | > 2 | B (Increase >2-fold) | < 2 | X (Decrease <2-fold) | > 2 | N | Y (Decrease >2-fold) | B (Increase >2-fold) | < 2 | 
O=C(C[C@H]1CC[C@@H]2[C@H](COC[C@H](O)CN2Cc2ccc(Oc3ccccc3)cc2)O1)N1CCc2ccccc2C1 [Compound 9a] | X (Decrease <2-fold) | > 2 | Y (Decrease >2-fold) | N | B (Increase >2-fold) | > 2 | B (Increase >2-fold) | > 2 | Y (Decrease >2-fold) | > 2 | N | Y (Decrease >2-fold) | B (Increase >2-fold) | > 2 | 
O=C(C[C@@H]1CC[C@@H]2[C@H](COC[C@H](O)CN2CCC(F)(F)F)O1)NCc1ccc(Oc2ccccc2)cc1 [Compound 10a] | N | > 2 | Y (Decrease >2-fold) | N | N | > 2 | B (Increase >2-fold) | > 2 | X (Decrease <2-fold) | > 2 | N | Y (Decrease >2-fold) | N | < 2 | 
O=C(C[C@H]1C[C@H]2c3cc(NC(=O)c4ccc5c(c4)OCO5)ccc3O[C@H]2[C@H](CO)O1)NCc1ccc(Oc2ccccc2)cc1 [Compound 11a] | Y (Decrease >2-fold) | > 2 | Y (Decrease >2-fold) | Y (Decrease >2-fold) | Y (Decrease >2-fold) | > 2 | B (Increase >2-fold) | > 2 | Y (Decrease >2-fold) | > 2 | N | Y (Decrease >2-fold) | B (Increase >2-fold) | > 2 | 
O=C(C[C@H]1C[C@H]2c3cc(NS(=O)(=O)c4ccc(F)cc4)ccc3O[C@H]2[C@H](CO)O1)NCc1ccc(Oc2ccccc2)cc1 [Compound 13a] | N | > 2 | Y (Decrease >2-fold) | N | N | > 2 | B (Increase >2-fold) | > 2 | Y (Decrease >2-fold) | > 2 | N | Y (Decrease >2-fold) | X (Decrease <2-fold) | < 2 | 
